This is an account of results in ChEMBL document CHEMBL1148237, “Bioisosteric replacement of anilide with benzoxazole: potent and orally bioavailable antagonists of VLA-4” (Bioorg Med Chem Lett, 2004).

pIC50: −log10 of the molar value.

One series deals with T1, Integrin alpha-4/beta-7 (Homo sapiens, UniProt P13612+P26010).
T1 sequence (P13612 whole entry): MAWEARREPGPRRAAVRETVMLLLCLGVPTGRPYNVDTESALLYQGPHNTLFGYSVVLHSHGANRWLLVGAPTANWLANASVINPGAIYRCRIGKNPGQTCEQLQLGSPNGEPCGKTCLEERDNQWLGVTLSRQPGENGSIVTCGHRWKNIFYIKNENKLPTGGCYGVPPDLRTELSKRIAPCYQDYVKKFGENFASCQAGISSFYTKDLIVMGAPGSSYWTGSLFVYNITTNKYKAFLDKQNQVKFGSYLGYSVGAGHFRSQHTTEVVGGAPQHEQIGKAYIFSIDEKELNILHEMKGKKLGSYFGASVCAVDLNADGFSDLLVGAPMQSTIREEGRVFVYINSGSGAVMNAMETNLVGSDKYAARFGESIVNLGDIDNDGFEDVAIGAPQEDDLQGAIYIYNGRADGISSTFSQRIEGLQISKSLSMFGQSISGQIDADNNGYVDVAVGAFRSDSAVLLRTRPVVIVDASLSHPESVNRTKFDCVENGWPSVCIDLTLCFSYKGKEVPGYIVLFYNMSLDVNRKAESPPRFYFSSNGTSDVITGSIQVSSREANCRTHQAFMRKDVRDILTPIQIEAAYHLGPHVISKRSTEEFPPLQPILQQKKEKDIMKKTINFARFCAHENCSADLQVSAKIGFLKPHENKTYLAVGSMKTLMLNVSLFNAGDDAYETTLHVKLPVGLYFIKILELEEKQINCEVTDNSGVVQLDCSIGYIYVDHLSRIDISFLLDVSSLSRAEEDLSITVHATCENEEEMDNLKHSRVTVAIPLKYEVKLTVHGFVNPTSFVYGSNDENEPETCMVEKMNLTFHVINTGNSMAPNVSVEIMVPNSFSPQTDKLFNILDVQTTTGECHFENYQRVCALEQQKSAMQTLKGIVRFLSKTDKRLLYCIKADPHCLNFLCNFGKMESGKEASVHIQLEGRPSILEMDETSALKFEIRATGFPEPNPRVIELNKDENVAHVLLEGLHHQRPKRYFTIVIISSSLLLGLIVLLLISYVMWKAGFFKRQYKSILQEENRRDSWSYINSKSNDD
T1 sequence (P26010 whole entry): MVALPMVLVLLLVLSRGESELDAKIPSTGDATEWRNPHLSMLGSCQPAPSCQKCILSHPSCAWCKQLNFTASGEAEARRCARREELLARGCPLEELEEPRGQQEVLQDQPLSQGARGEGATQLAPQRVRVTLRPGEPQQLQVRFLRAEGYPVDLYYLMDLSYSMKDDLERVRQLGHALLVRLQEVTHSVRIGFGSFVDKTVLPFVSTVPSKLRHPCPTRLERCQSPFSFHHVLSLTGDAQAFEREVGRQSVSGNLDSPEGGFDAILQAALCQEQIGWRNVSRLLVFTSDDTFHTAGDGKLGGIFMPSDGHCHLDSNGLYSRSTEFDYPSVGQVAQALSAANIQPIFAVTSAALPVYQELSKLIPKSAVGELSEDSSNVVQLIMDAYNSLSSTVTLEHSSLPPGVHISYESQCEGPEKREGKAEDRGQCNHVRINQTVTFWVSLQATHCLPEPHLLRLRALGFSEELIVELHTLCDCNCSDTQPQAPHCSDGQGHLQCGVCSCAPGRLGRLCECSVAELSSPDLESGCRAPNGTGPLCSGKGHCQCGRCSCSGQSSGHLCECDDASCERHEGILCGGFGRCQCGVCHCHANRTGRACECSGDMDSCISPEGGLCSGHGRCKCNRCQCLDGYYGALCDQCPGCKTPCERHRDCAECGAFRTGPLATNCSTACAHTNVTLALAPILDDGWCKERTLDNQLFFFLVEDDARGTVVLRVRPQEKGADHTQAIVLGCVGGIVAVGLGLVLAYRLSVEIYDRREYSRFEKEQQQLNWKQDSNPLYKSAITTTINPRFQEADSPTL
The experiment in a line: Inhibition of Mn2+ activated state of alpha4-beta7 integrin. Type of series: protein-complex assay.

Series [1] is described as follows: Bioavailability in rat. The class given is ADME, organism-based. Particulars: in vivo.
Series [2] deals with T2, Integrin alpha-4/beta-1 (Homo sapiens, UniProt P05556+P13612). The experiment in a line: Inhibition of Mn2+ activated state of very late antigen 4 (VLA-4). The class given is protein-complex assay.
T2 sequence (P05556 whole entry, one chain of several): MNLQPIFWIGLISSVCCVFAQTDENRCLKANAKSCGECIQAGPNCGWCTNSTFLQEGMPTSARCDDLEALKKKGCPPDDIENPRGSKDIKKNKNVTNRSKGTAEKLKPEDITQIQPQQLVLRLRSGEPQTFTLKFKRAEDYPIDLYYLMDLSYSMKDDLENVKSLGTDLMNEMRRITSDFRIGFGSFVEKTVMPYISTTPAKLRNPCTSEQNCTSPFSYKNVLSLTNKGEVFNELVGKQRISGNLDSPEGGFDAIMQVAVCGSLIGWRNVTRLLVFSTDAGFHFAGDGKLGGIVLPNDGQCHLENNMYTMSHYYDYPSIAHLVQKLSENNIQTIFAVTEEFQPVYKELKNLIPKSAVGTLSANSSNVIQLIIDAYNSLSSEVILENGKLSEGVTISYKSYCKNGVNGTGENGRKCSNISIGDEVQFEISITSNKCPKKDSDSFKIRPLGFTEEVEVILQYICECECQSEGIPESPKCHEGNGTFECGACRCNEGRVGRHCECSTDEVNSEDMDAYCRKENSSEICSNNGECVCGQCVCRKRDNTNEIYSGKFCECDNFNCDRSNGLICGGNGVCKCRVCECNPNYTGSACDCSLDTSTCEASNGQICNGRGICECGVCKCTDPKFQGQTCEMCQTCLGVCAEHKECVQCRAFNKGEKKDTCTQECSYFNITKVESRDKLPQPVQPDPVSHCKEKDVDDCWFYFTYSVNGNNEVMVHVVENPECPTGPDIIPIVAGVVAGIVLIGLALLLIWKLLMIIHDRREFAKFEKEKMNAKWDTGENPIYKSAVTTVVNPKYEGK
Series [3] concerns the target T2, Integrin alpha-4/beta-1. The experiment in a line: Inhibition of [Ca2+]/Mg2+ unactivated state of very late antigen 4 (VLA-4). Type of series: protein-complex assay.
A short description of series [4]: Clearance of compound in rat was evaluated. Type of series: ADME, organism-based. The note with it: in vivo.

One may read the pIC50 as the IC50 on a negative log10 scale, so that one unit is a factor of ten. The low end stands for a high IC50, the high end for a low IC50. What is called bioavailability is the share of a dose that reaches the circulation, judged against a reference dose that is usually intravenous. Read a high bioavailability as good availability. For orientation: clearance means a measure of how efficiently the substance is removed, as volume per time. Read a high clearance as efficient removal. Consider `O=C(O)[C@H](Cc1ccc2nc(-c3c(Cl)cccc3Cl)oc2c1)NC(=O)[C@@H]1CCN1S(=O)(=O)c1cc(Cl)cc(Cl)c1`, for which the pIC50 against Integrin alpha-4/beta-7 was 5.77; against Integrin alpha-4/beta-1 [2] it was 8.77; at Integrin alpha-4/beta-1 [3] it was 7.48. Also, the bioavailability in series [1] came to 8%. The molecule also came in with a clearance in series [4] of 24 mL/min/kg.

For `O=C(N[C@@H](Cc1ccc2[nH]c(-c3c(Cl)cccc3Cl)nc2c1)C(=O)O)c1c(Cl)cccc1Cl`, the pIC50 at Integrin alpha-4/beta-7 was 8.49; on Integrin alpha-4/beta-1 [2], 9.16; on Integrin alpha-4/beta-1 [3] it was 7.66. Also, the bioavailability in series [1] came out at 1.2%. In series [4], the clearance stood at 24 mL/min/kg.

Take `O=C(N[C@@H](Cc1ccc2oc(-c3c(Cl)cccc3Cl)nc2c1)C(=O)O)c1c(Cl)cccc1Cl`: the pIC50 against Integrin alpha-4/beta-7 was 8.26; against Integrin alpha-4/beta-1 [2] it was 9.10; at Integrin alpha-4/beta-1 [3] it was 7.28. This molecule also registered a bioavailability in series [1] of 20%. The molecule also had a clearance in series [4] of 9 mL/min/kg.

Consider `COc1cccc(OC)c1-c1ccc(C[C@H](NC(=O)[C@]2(C)CCN2S(=O)(=O)c2cc(Cl)cc(Cl)c2)C(=O)O)cc1`, for which the pIC50 against Integrin alpha-4/beta-1 [3] was 9.57. The clearance in series [4] turned out to be 97 mL/min/kg.

With `O=C(Nc1ccc(C[C@H](NC(=O)[C@@H]2CCN2S(=O)(=O)c2cc(Cl)cc(Cl)c2)C(=O)O)cc1)c1c(Cl)cccc1Cl`, the negative logarithm of the IC50 (pIC50) is 7.66 on Integrin alpha-4/beta-7, 9.57 on Integrin alpha-4/beta-1 [2] and 9.51 at Integrin alpha-4/beta-1 [3]. In addition, in series [1], the bioavailability was found to be 0.7%. The molecule further registered a clearance in series [4] of 33 mL/min/kg.

On to `O=C(O)[C@H](Cc1ccc2[nH]c(-c3c(Cl)cccc3Cl)nc2c1)NC(=O)[C@@H]1CCN1S(=O)(=O)c1cc(Cl)cc(Cl)c1`, for which the figures for the pIC50 against Integrin alpha-4/beta-7, against Integrin alpha-4/beta-1 [2] and against Integrin alpha-4/beta-1 [3] were 6.98, 9.27 and 8.74, respectively. For the same molecule, in series [1], the bioavailability was 0.3%. In series [4], this molecule came in with a clearance of 21 mL/min/kg.

As for `O=C(N[C@@H](Cc1ccc2oc(-c3c(Cl)cccc3Cl)nc2c1)C(=O)O)c1c(Cl)cncc1Cl`, the pIC50 on Integrin alpha-4/beta-7 was 8.37; against Integrin alpha-4/beta-1 [2], 9.47; on Integrin alpha-4/beta-1 [3] it was 7.68. The same molecule displayed a bioavailability in series [1] of 25%. Moreover, the clearance in series [4] was 25 mL/min/kg.

For `O=C(O)[C@H](Cc1ccc2oc(-c3c(Cl)cccc3Cl)nc2c1)NC(=O)[C@@H]1CCN1S(=O)(=O)c1cc(Cl)cc(Cl)c1`, the values for the pIC50 against Integrin alpha-4/beta-7, on Integrin alpha-4/beta-1 [2] and on Integrin alpha-4/beta-1 [3] were 6.75, 9.13 and 8.44, respectively. In series [1], the bioavailability came to 15%. Further, the clearance in series [4] came to 24 mL/min/kg.
